What was measured:
Mesenchymal stem cells [1] = experiment: Immunofluorescence staining of neuron-associated proteins; type: cell-based, human; settings: all cases treated with lipoic acid, 5 days after differentiation, compared to the control
Method: (§1) Mesenchymal stem cells were seeded in low glucose-Dulbecco's Modified Eagle's Medium (LG-DMEM) containing 10% fetal bovine serum (FBS) at a density of 5×10^3 cell/cm2. 24 hours after seeding, the medium was replaced with fresh DMEM/F-12 (1:1 mixed medium) supplemented with 1 uM hydrocortisone, […], 1% bovine serum albumin, and 0, 1, 2, 3, 4, 5 or 8 mM lipoic acid to induce differentiation into neural cells. Moreover, 1 uM forskolin was further added to promote differentiation into neural cells.
The neural cells cultured in Example 3 were fixed on glass coverslips with 4% paraformaldehyde for 10 minutes, blocked with PBS containing 1.5% bovine serum albumin (BSA), and then permeabilized with PBS containing 0.5% Triton™ X-100. Then, the cells were reacted with primary antibodies such as anti-NF-L, anti-MAP2, anti-GFAP, anti-NeuroD1 (Cell Signaling, USA), and anti-tau (Biosource, USA) at 4° C. for 16 hours. Then, the cells were washed with PBS for 10 minutes and reacted with species-specific secondary antibodies such as anti-rabbit IgG-Alexa Fluor® 488 or anti-mouse IgG-Alexa Fluor® 555 conjugate at room temperature for 1 hour. Then, the stained cells were mounted with Vectashield® mounting medium containing DAPI and contrast stained. The cells were examined using a Confocal Laser Scanning Microscope (LSM 510-meta, Germany), and the results are shown in FIG. 9.

Mesenchymal stem cells [2] = experiment: RT-PCR of neuron-related genes (MAP2, DCX, Tau, NeuroD1, NSE, Nestin, NF-L); type: cell-based, human; settings: 5 days after differentiation, compared to the control
Method: as §1
The total RNA was recovered and isolated using TRIzol® solution (Invitrogen, USA), and then 1 ug RNA was used to synthesize cDNA using an RT-PCR kit (Clontech, USA). The genes to be analyzed were MAP2, DCX, Tau, NeuroD1, NSE, Nestin and NF-L, and the primers used for the analysis are shown in the following Table 1.

Mesenchymal stem cells [3] = experiment: Western blot analysis of neuron-associated proteins (NSE, Nestin, NF-L); type: cell-based, human; settings: 5 days after differentiation, compared to the control
Method: as §1
The neural cells cultured in Example 3 were washed with phosphate-buffered saline (PBS) and lysed with radioimmunoprecipitation (RIPA) buffer containing protease inhibitor. The total protein was measured using a BCA® Protein Assay kit (Pierce, USA), and 10 ug protein was electrophoresed on a 10% polyacrylamide gel and transferred to a nitrocellulose membrane. Then, the membrane was blocked with Tris-buffered saline (TBS) containing 5% skim milk and 0.5% Tween® 20 at room temperature for 30 minutes and reacted with antibodies such as anti-NSE, anti-Nestin, Anti-NF-L (Cell Signaling, USA), and β-actin (Sigma, USA) at 4° C. for 16 hours. Subsequently, the membrane was reacted with an anti-mouse or anti-rabbit secondary antibody at room temperature for 1 hour, exposed to ECL™ (Pierce™ Biotechnology, USA), and then imaged using a ChemiDoc™ XRS+Imaging System (BioRad®, USA).

Mesenchymal stem cells [4] = experiment: Differentiation into neural cells, cellular morphology under a microscope; type: cell-based, human; settings: for maintenance of the morphology of neural cells: after induction of differentiation
Method: Mesenchymal stem cells obtained from adipose tissue used in this Example were StemPro® Adipose-derived Stem Cells (Product No. R7788-110) purchased from Invitrogen. Frozen ampoules were thawed, and cells were washed with DMEM, centrifuged at 800 RPM for 5 minutes, and cultured in DMEM containing low glucose (1000 mg/L) and supplemented with 10% fetal bovine serum (FBS).
as §1

Mesenchymal stem cells [5] = experiment: Cell viability measured by MTT; type: cell-based, human
Method: The cell viability was measured by MTT (3-(4,5-dimethylthiazol-2-yl)-2,5-diphenyltetrazolium bromide). Specifically, MTT solution (0.0333 g/ml DMEM) was added to the neural cells cultured in Example 3 for reaction at 37° C. for 90 minutes and then removed. Then, dimethyl sulfoxide (DMSO) was added and left to stand for 10 minutes, and the resulting solution was used to measure the absorbance at 570 nm using a spectrum analyzer. Mesenchymal stem cells were seeded in low glucose-Dulbecco's Modified Eagle's Medium (LG-DMEM) containing 10% fetal bovine serum (FBS) at a density of 5×10^3 cell/cm2. 24 hours after seeding, the medium was replaced with fresh DMEM/F-12 (1:1 mixed medium) supplemented with 1 ug hydrocortisone, […], 1% bovine serum albumin, and 0, 1, 2, 3, 4, 5 or 8 mM lipoic acid to induce differentiation into neural cells. Moreover, 1 ug forskolin or […] (NGF) might be further added to enhance differentiation into neural cells. […]

human cells = settings: serum-free culture of human cells; cited from earlier work

Row | Compound | expression of neuron-associated proteins (immunofluorescence) (Mesenchymal stem cells [1]) | expression of neuron-related genes (mRNAs) (Mesenchymal stem cells [2]; 4 mM lipoic acid) | expression of neuron-related genes (mRNAs) (Mesenchymal stem cells [2]; 8 mM lipoic acid) | expression of neuron-associated proteins (Western blot) (Mesenchymal stem cells [3]; 4 mM lipoic acid) | expression of neuron-associated proteins (Western blot) (Mesenchymal stem cells [3]; 8 mM lipoic acid) | maintenance of the morphology of neural cells (Mesenchymal stem cells [4]) | morphological changes of neural cells (Mesenchymal stem cells [4]; lipoic acid at 1 mM, 5 days, with hydrocortisone, insulin, 1% bovine serum albumin) | morphological changes of neural cells (dendrite formation) (Mesenchymal stem cells [4]; lipoic acid at more than 2 mM, 5 days, with 1 uM hydrocortisone, […], 1% bovine serum albumin) | cell viability (Mesenchymal stem cells [5]; human, 4 mM) [%] | cell viability (Mesenchymal stem cells [5]; human, 8 mM) [%] | concentration known to cause cell apoptosis (human cells) [µM] | cell viability (Mesenchymal stem cells [5]; 5 days, 200 ug butylated hydroxyanisole (control))
1 | O=C(O)CCCC[C@@H]1CCSS1 (racemic) [lipoic acid] | increased | further increased | increased | further increased | increased | well maintained up to 5 days | no change | dendrites were well formed | 61.4 | 51.4 | ≥ 2000 | –
2 | COc1ccc(O)c(C(C)(C)C)c1 [butylated hydroxyanisole] | – | – | – | – | – | destroyed after 24 hours | – | – | – | – | – | too low
